How the values were obtained:
Klebsiella pneumoniae [1] = assay: MIC against clinical isolates; type: cell-based; details: unit assumed
Proteus vulgaris = assay: MIC against clinical isolates; type: cell-based; details: clinical isolate, unit assumed
Shigella flexneri = assay: MIC against clinical isolates; type: cell-based; details: unit assumed
Experimental: (§1) The minimum inhibitory concentrations (MIC) was determined by the plate method disclosed in "Chemotherapy" (Japan), Vol. 16, (1968), pages 98 - 99. The culture medium used was a Heart infusion agar (pH 7.4). The number of the cells per plate used in the inoculum as 10^4 (10^6 cells/ml).
(§2) MIC was determined in the same manner as in the preceding paragraph (1).

Shigella sonnei = assay: MIC against clinical isolates; type: cell-based; details: unit assumed
Experimental: as §1, §2

β-lactamase = assay: Resistant activity against β-lactamase, iodometric assay; type: biochemical, Pseudomonas aeruginosa GN 238; details: relative to Potassium Penicillin G = 100
Experimental: (3) Resistant activity against β-lactamase, Pseudomonas aergionan GN 238:
The resistant activity of each compound against β-lactamase was measured in the manner described below.
β-Lactamase was prepared from Pseudomonas aeruginosa GN 238. This microorganism was cultured in 100 ml of a medium containing 2 g of yeast extract, 10 g of polypeptone, 2 g of glucose, 7 g of disodium hydrogen phosphate, 2 g of potassium dihydrogen phosphate, 1.2 g of ammonium sulfate and 0.4 g of magnesium sulfate, per liter, in a 500-ml Erlenmeyer flask for 6 hrs. at 37° C with shaking. The resulting cells were collected by centrifugation (5,000 r.p.m. × 10 min.), washed three times with 0.1 M phosphate buffer (pH 7.0). Subsequently, the cells were subjected to sonication (20 KHz, 20 min.) and then centrifuged at 15,000 r.p.m. for 60 min. By using the supernatant of enzyme fluid, the resistance of each compound against β-lactamase was determined by the iodometric assay method. Each numeral shown in Table 7 is a relative activity value calculated by assuming as 100 the activity of the control Potassium Penicillin G.

Salmonella typhi-murium = assay: MIC against clinical isolates; type: cell-based; details: unit assumed
Pseudomonas aeruginosa = assay: MIC against clinical isolates; type: cell-based; details: unit assumed
Staphylococcus aureus = assay: MIC against clinical isolates; type: cell-based; details: unit assumed
Proteus morganii = assay: MIC against clinical isolates; type: cell-based; details: clinical isolate, unit assumed
Proteus mirabilis = assay: MIC against clinical isolates; type: cell-based; details: clinical isolate, unit assumed
Proteus rettgeri = assay: MIC against clinical isolates; type: cell-based; details: clinical isolate, unit assumed
Salmonella typhi = assay: MIC against clinical isolates; type: cell-based; details: unit assumed
Escherichia coli = assay: MIC against clinical isolates; type: cell-based; details: unit assumed
[2] = tested on: Staphylococcus aureus 209p; assay: MIC against standard strain, plate method; type: cell-based; details: unit assumed
How it was run: (§3)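 Plate-method MIC. Medium: heart infusion agar, pH 7.4. Inoculum: 10^4 cells per plate (10^6 cells/ml).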

Escherichia coli NIHJ = assay: MIC against standard strain, plate method; type: cell-based; details: unit assumed
How it was run: as §3

Proteus vulgaris 3027 = assay: MIC against standard strain, plate method; type: cell-based; details: Proteus vulgaris 3027, standard strain; unit assumed
How it was run: as §3

[3] = tested on: Pseudomonas aeruginosa I.F.O.; assay: MIC against standard strain, plate method; type: cell-based; details: unit assumed
How it was run: as §3

Klebsiella pneumoniae [4] = assay: MIC against standard strain, plate method; type: cell-based; details: unit assumed
How it was run: as §3

[5] = clinical isolate GN (number not given; Table 5-3)

CCCN1CCN(C(=O)N[C@@H](C(=O)N[C@@H]2C(=O)N3[C@@H]2SC(C)(C)[C@@H]3C(=O)O)c2ccccc2)C(=O)C1=O (single isomer, unassigned) [compound 38]
12.5 µg/mL: MIC (Pseudomonas aeruginosa; clinical isolate GN 1035) | MIC (Pseudomonas aeruginosa; clinical isolate GN 2565) | MIC (Pseudomonas aeruginosa; clinical isolate S-1) | MIC (Pseudomonas aeruginosa; clinical isolate S-2) | MIC (Pseudomonas aeruginosa; clinical isolate S-3) | MIC (Pseudomonas aeruginosa; clinical isolate S-4) | MIC (Proteus rettgeri)
50 µg/mL: MIC (Klebsiella pneumoniae [1]; clinical isolate GN 4081) | MIC (Klebsiella pneumoniae [1]; clinical isolate GN 4117) | MIC (Shigella sonnei; clinical isolate JS 11232) | MIC (Escherichia coli; clinical isolate GN 3465)
0.79 µg/mL: MIC (Staphylococcus aureus; clinical isolate F-3) | MIC (Staphylococcus aureus; clinical isolate MS 8619) | MIC (Salmonella typhi; clinical isolate SL 2169) | MIC (Escherichia coli; clinical isolate GN 3435) | MIC (Escherichia coli; clinical isolate K-4)
15%: Relative activity (β-lactamase)
3.13 µg/mL: MIC (Salmonella typhi-murium; clinical isolate SL 858)
> 200 µg/mL: MIC (Staphylococcus aureus; clinical isolate F-5) | MIC (Escherichia coli; clinical isolate GN 3611) | MIC (Escherichia coli; clinical isolate K-3)
< 0.1 µg/mL: MIC (Escherichia coli NIHJ)
25 µg/mL: MIC (Shigella flexneri; clinical isolate JS 11215)
< 0.4 µg/mL: MIC (Proteus vulgaris) | MIC (Proteus morganii) | MIC (Proteus mirabilis)
6.25 µg/mL: MIC (Klebsiella pneumoniae [1]; clinical isolate GN 3850) | MIC (Pseudomonas aeruginosa; clinical isolate GN 221) | MIC (Pseudomonas aeruginosa; clinical isolate GN 383) | MIC (Pseudomonas aeruginosa; clinical isolate GN 2987) | MIC (Pseudomonas aeruginosa; [5]) | MIC (Staphylococcus aureus; clinical isolate F-1) | MIC (Staphylococcus aureus; clinical isolate F-4) | MIC (Staphylococcus aureus; clinical isolate MS 8713) | MIC [3]
200 µg/mL: MIC (Salmonella typhi-murium; clinical isolate SL 2136)
0.4 µg/mL: MIC [2] | MIC (Proteus vulgaris 3027)
1.57 µg/mL: MIC (Salmonella typhi; clinical isolate SL 819)

CCCCCCCCN1CCN(C(=O)N[C@@H](C(=O)N[C@@H]2C(=O)N3[C@@H]2SC(C)(C)[C@@H]3C(=O)O)c2ccccc2)C(=O)C1=O (single isomer, unassigned) [compound 47]
3.13 µg/mL: MIC (Salmonella typhi; clinical isolate SL 819)
1%: Relative activity (β-lactamase)
0.79 µg/mL: MIC (Shigella sonnei; clinical isolate JS 11755) | MIC (Proteus rettgeri) | MIC (Escherichia coli; clinical isolate GN 3435) | MIC (Escherichia coli; clinical isolate K-4)
25 µg/mL: MIC (Pseudomonas aeruginosa; clinical isolate GN 221) | MIC (Pseudomonas aeruginosa; clinical isolate GN 383) | MIC (Pseudomonas aeruginosa; clinical isolate GN 1035) | MIC (Pseudomonas aeruginosa; clinical isolate GN 2565) | MIC (Pseudomonas aeruginosa; [5])
50 µg/mL: MIC (Salmonella typhi-murium; clinical isolate SL 2136) | MIC (Pseudomonas aeruginosa; clinical isolate GN 376) | MIC (Pseudomonas aeruginosa; clinical isolate S-1) | MIC (Pseudomonas aeruginosa; clinical isolate S-2) | MIC (Pseudomonas aeruginosa; clinical isolate S-3) | MIC (Pseudomonas aeruginosa; clinical isolate S-4)
12.5 µg/mL: MIC (Klebsiella pneumoniae [1]; clinical isolate GN 4081) | MIC (Klebsiella pneumoniae [1]; clinical isolate GN 4117) | MIC (Pseudomonas aeruginosa; clinical isolate GN 82) | MIC (Pseudomonas aeruginosa; clinical isolate GN 163) | MIC (Pseudomonas aeruginosa; clinical isolate GN 1091) | MIC (Pseudomonas aeruginosa; clinical isolate GN 2987) | MIC (Staphylococcus aureus; clinical isolate F-4)
100 µg/mL: MIC (Escherichia coli; clinical isolate K-3)
< 1.57 µg/mL: MIC [2] | MIC (Klebsiella pneumoniae [4]) | MIC (Escherichia coli NIHJ) | MIC (Proteus vulgaris 3027)
1.57 µg/mL: MIC (Salmonella typhi; clinical isolate SL 2169)
> 200 µg/mL: MIC (Staphylococcus aureus; clinical isolate F-5) | MIC (Escherichia coli; clinical isolate GN 3611)
6.25 µg/mL: MIC (Shigella flexneri; clinical isolate JS 11215) | MIC (Shigella sonnei; clinical isolate JS 11232) | MIC (Staphylococcus aureus; clinical isolate F-1) | MIC (Staphylococcus aureus; clinical isolate MS 8713) | MIC (Escherichia coli; clinical isolate GN 3465) | MIC [3]
< 0.4 µg/mL: MIC (Proteus vulgaris) | MIC (Salmonella typhi-murium; clinical isolate SL 858) | MIC (Staphylococcus aureus; clinical isolate MS 8619) | MIC (Proteus morganii) | MIC (Proteus mirabilis)

CCCCN1CCN(C(=O)N[C@@H](C(=O)N[C@@H]2C(=O)N3[C@@H]2SC(C)(C)[C@@H]3C(=O)O)c2ccccc2)C(=O)C1=O (single isomer, unassigned) [compound 39]
15%: Relative activity (β-lactamase)
< 0.1 µg/mL: MIC (Escherichia coli NIHJ)
6.25 µg/mL: MIC (Pseudomonas aeruginosa; clinical isolate GN 376) | MIC (Pseudomonas aeruginosa; clinical isolate GN 383) | MIC (Pseudomonas aeruginosa; [5]) | MIC (Staphylococcus aureus; clinical isolate F-1) | MIC (Staphylococcus aureus; clinical isolate F-4) | MIC (Proteus rettgeri) | MIC [3]
25 µg/mL: MIC (Klebsiella pneumoniae [1]; clinical isolate GN 4081) | MIC (Klebsiella pneumoniae [1]; clinical isolate GN 4117) | MIC (Shigella flexneri; clinical isolate JS 11215) | MIC (Shigella sonnei; clinical isolate JS 11232) | MIC (Pseudomonas aeruginosa; clinical isolate S-3) | MIC (Escherichia coli; clinical isolate GN 3465)
< 0.4 µg/mL: MIC (Proteus vulgaris) | MIC (Proteus morganii) | MIC (Proteus mirabilis)
100 µg/mL: MIC (Salmonella typhi-murium; clinical isolate SL 2136)
12.5 µg/mL: MIC (Pseudomonas aeruginosa; clinical isolate GN 1035) | MIC (Pseudomonas aeruginosa; clinical isolate GN 2565) | MIC (Pseudomonas aeruginosa; clinical isolate S-1) | MIC (Pseudomonas aeruginosa; clinical isolate S-2) | MIC (Pseudomonas aeruginosa; clinical isolate S-4)
> 200 µg/mL: MIC (Staphylococcus aureus; clinical isolate F-5) | MIC (Escherichia coli; clinical isolate GN 3611) | MIC (Escherichia coli; clinical isolate K-3)
1.57 µg/mL: MIC (Klebsiella pneumoniae [1]; clinical isolate GN 917) | MIC (Shigella sonnei; clinical isolate JS 11755) | MIC (Staphylococcus aureus; clinical isolate F-2) | MIC (Staphylococcus aureus; clinical isolate F-3) | MIC (Staphylococcus aureus; clinical isolate MS 8588) | MIC (Staphylococcus aureus; clinical isolate MS 8596) | MIC (Escherichia coli; clinical isolate GN 3481) | MIC (Escherichia coli; clinical isolate K-1) | MIC (Escherichia coli; clinical isolate K-2) | MIC (Klebsiella pneumoniae [4])
3.13 µg/mL: MIC (Klebsiella pneumoniae [1]; clinical isolate GN 3850) | MIC (Pseudomonas aeruginosa; clinical isolate GN 82) | MIC (Pseudomonas aeruginosa; clinical isolate GN 163) | MIC (Pseudomonas aeruginosa; clinical isolate GN 221) | MIC (Pseudomonas aeruginosa; clinical isolate GN 1091) | MIC (Pseudomonas aeruginosa; clinical isolate GN 2987) | MIC (Staphylococcus aureus; clinical isolate MS 8684) | MIC (Staphylococcus aureus; clinical isolate MS 8713)
0.4 µg/mL: MIC [2] | MIC (Proteus vulgaris 3027)
0.79 µg/mL: MIC (Shigella flexneri; clinical isolate JS 11839) | MIC (Salmonella typhi-murium; clinical isolate SL 858) | MIC (Staphylococcus aureus; clinical isolate MS 8619) | MIC (Salmonella typhi; clinical isolate SL 819) | MIC (Salmonella typhi; clinical isolate SL 2169) | MIC (Escherichia coli; clinical isolate GN 3435) | MIC (Escherichia coli; clinical isolate GN 3452) | MIC (Escherichia coli; clinical isolate K-4)
